Measured values from the supplement of paper PMC10307832.

Experiments:
Assay in all cases: relative viability (nuclei count vs DMSO), 5 days (fraction); higher = more cells survive
IPA-3 + Navitoclax = compound: C1=CC=C2C(=C1)C=CC(=C2SSC3=C(C=CC4=CC=CC=C43)O)O [IPA-3] + CC1(C)CCC(c2ccc(Cl)cc2)=C(CN2CCN(c3ccc(C(=O)NS(=O)(=O)c4ccc(N[C@H](CCN5CCOCC5)CSc5ccccc5)c(S(=O)(=O)C(F)(F)F)c4)cc3)CC2)C1 [Navitoclax] (partner 0.5 µM)
Method in brief: (§1)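 Lung cancer cell lines in 1536-well plates got either a single drug or a fixed anchor-drug dose together with five library-drug doses (not always all listed) in √10 steps, by pin tool, on the day after seeding. Nuclei were counted after 5 days, and relative viability is the treated-to-vehicle ratio of nuclei counts. Values are medians of duplicate plates.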

Doramapimod + Luminespib = compound: Cc1ccc(-n2nc(C(C)(C)C)cc2NC(=O)Nc2ccc(OCCN3CCOCC3)c3ccccc23)cc1 [Doramapimod] + CCNC(=O)c1noc(-c2cc(C(C)C)c(O)cc2O)c1-c1ccc(CN2CCOCC2)cc1 [Luminespib] (partner 0.01 µM)
Method in brief: as §1

Doramapimod + Pictilisib = compound: Cc1ccc(-n2nc(C(C)(C)C)cc2NC(=O)Nc2ccc(OCCN3CCOCC3)c3ccccc23)cc1 [Doramapimod] + CS(=O)(=O)N1CCN(Cc2cc3nc(-c4cccc5[nH]ncc45)nc(N4CCOCC4)c3s2)CC1 [Pictilisib] (partner 1 µM)
Method in brief: as §1

Cell Line	relative viability (IPA-3 + Navitoclax; first compound 0.2 µM)	relative viability (IPA-3 + Navitoclax; first compound 0.6325 µM)	relative viability (IPA-3 + Navitoclax; first compound 2 µM)	relative viability (IPA-3 + Navitoclax; first compound 6.325 µM)	relative viability (IPA-3 + Navitoclax; first compound 20 µM)	relative viability (Doramapimod + Luminespib; first compound 0.02 µM)	relative viability (Doramapimod + Luminespib; first compound 0.06325 µM)	relative viability (Doramapimod + Luminespib; first compound 0.2 µM)	relative viability (Doramapimod + Luminespib; first compound 0.6325 µM)	relative viability (Doramapimod + Luminespib; first compound 2 µM)	relative viability (Doramapimod + Pictilisib; first compound 0.02 µM)	relative viability (Doramapimod + Pictilisib; first compound 0.06325 µM)	relative viability (Doramapimod + Pictilisib; first compound 0.2 µM)	relative viability (Doramapimod + Pictilisib; first compound 0.6325 µM)	relative viability (Doramapimod + Pictilisib; first compound 2 µM)
NCI-H1437	1.16	0.997	1.19	1.02	1.15	1.2	1.21	1.16	1.15	1.2	0.453	0.411	0.37	0.596	0.415
NCI-H1650	1.37	1.26	1.12	1.09	1.34	0.186	0.171	0.195	0.176	0.209	0.537	0.629	0.724	0.329	0.474
NCI-H1651	1.06	–	0.998	1.1	1.19	0.76	0.863	0.87	0.93	0.758	0.605	0.478	0.551	0.695	0.519
NCI-H1666	1.07	0.981	1.08	0.962	0.863	1.02	1.06	1.06	1.06	1	0.502	0.397	0.37	0.369	0.312
NCI-H1734	1.1	0.834	0.781	0.844	1.02	0.227	0.259	0.214	0.17	0.18	0.418	0.356	0.352	0.466	0.325
NCI-H1755	1.07	1.01	1	1.03	1.02	0.354	0.426	0.411	0.431	0.22	0.364	0.382	0.455	0.447	0.393
NCI-H1792	0.939	0.665	0.55	0.675	0.825	0.396	0.345	0.385	0.413	0.356	0.271	0.234	0.222	0.254	0.211
NCI-H1793	0.518	0.37	0.395	0.44	0.594	0.157	0.174	0.144	0.23	0.161	0.392	0.324	0.245	0.336	0.252
NCI-H1915	0.794	0.817	0.782	0.782	0.738	0.58	0.821	0.793	0.9	0.712	0.945	0.932	0.989	0.87	0.785
NCI-H1944	1.07	0.899	1.1	1.07	1.02	0.626	0.777	0.718	0.769	0.655	0.319	0.378	0.339	0.372	0.322
NCI-H1975	1.22	0.932	1.06	1.17	1.17	0.173	0.192	0.207	0.258	0.266	0.324	0.32	0.315	0.373	0.294
NCI-H1993	0.973	0.911	0.896	0.894	0.838	1.85	0.87	0.64	0.975	0.744	0.85	0.97	0.825	0.728	0.906
NCI-H2009	1.29	1.17	1.19	1.16	1.15	1.05	1.17	1.12	1.23	1.04	0.812	0.656	0.826	0.395	0.823
NCI-H2023	1.1	0.977	0.984	1.04	0.967	0.656	0.77	0.74	0.929	0.614	0.25	0.195	0.195	0.152	0.213
